Among the data in ChEMBL document CHEMBL2202963, “GPR119 Modulators for the Treatment of Diabetes, Obesity, and Related Diseases: Patent Highlight” (ACS Med Chem Lett, 2012) are EC50 and Drug metabolism values, retold here.

One may read the EC50 as the concentration needed to bring the measured effect to its halfway point.

Data set [1] concerns the target T1, Glucose-dependent insulinotropic receptor (Homo sapiens, UniProt Q8TDV5).
T1 sequence (Q8TDV5 whole entry): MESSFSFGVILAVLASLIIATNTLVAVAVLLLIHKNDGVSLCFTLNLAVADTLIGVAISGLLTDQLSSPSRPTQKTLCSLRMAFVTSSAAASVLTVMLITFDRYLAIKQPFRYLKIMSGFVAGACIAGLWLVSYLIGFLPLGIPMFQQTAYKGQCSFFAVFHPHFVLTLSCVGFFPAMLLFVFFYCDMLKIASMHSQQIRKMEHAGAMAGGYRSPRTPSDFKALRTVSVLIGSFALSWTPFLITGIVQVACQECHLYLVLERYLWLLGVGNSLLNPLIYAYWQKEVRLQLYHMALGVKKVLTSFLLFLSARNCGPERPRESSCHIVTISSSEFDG
The data set can be described thus: Agonist activity at GPR119 expressed in CHO-K1 cells assessed as cAMP level after 1 hr by homogenous time-resolved fluorescence assay. It is filed as functional, cell-based. In general terms: Cyclic AMP is a second messenger, typically raised through Gs and lowered through Gi signalling.

Data set [2] concerns the target T1, Glucose-dependent insulinotropic receptor. As to the kind of experiment: Agonist activity at human GPR119 expressed in MIN6 cells assessed as intracellular cAMP concentration after 45 mins by Alphascreen analysis. It is filed as functional, cell-based. For orientation: In Alpha technology, singlet oxygen from a donor bead excites a nearby acceptor bead.
The test system of data set [3] is Rhesus monkey. The data set can be described thus: Drug metabolism in monkey assessed as 3-fluoro-4-(5-fluoro-6-(4-(3-(2-fluoropropan-2-yl)-l, 2,4-oxadiazol-5-yl)piperidin-l -yl)pyrimidin-4-ylamino)benzoic acid metabolite by LC/MS/MS analysis. It is filed as ADME, organism-based, Macaca mulatta. The settings on record: in vivo.
Data set [4] has as its system Rhesus monkey. As to the kind of experiment: Drug metabolism in monkey assessed as 3-fluoro-4-(5-fluoro-6-(4-(3-(2-fluoropropan-2-yl)-1,2,4-oxadiazol-5-yl)piperidin-1-yl)pyrimidin-4-ylamino)benzamide metabolite by LC/MS/MS analysis. It is filed as ADME, organism-based, Macaca mulatta. Particulars: in vivo; call rule not given here.
Data set [5] has as its system Rhesus monkey. The data set can be described thus: Drug metabolism in monkey assessed as 3-fluoro-4-(5-fluoro-6-(4-(3-(2-fluoropropan-2-yl)-1,2,4-oxadiazol-5-yl)piperidin-1-yl)pyrimidin-4-ylamino)-N-methylbenzamide metabolite by LC/MS/MS analysis. It is filed as ADME, organism-based, Macaca mulatta. The settings on record: in vivo.
The species named for data set [6] is Canis familiaris. The data set can be described thus: Drug metabolism in dog assessed as 3-fluoro-4-(5-fluoro-6-(4-(3-(2-fluoropropan-2-yl)-l, 2,4-oxadiazol-5-yl)piperidin-l -yl)pyrimidin-4-ylamino)benzoic acid metabolite by LC/MS/MS analysis. It is filed as ADME, organism-based, Canis lupus familiaris. Particulars: in vivo.
For data set [7], the species on record is Canis familiaris. The data set can be described thus: Drug metabolism in dog assessed as 3-fluoro-4-(5-fluoro-6-(4-(3-(2-fluoropropan-2-yl)-1,2,4-oxadiazol-5-yl)piperidin-1-yl)pyrimidin-4-ylamino)benzamide metabolite by LC/MS/MS analysis. The format is ADME, organism-based, Canis lupus familiaris. Particulars: in vivo.
For data set [8], the species on record is Canis familiaris. As to the kind of experiment: Drug metabolism in dog assessed as 3-fluoro-4-(5-fluoro-6-(4-(3-(2-fluoropropan-2-yl)-1,2,4-oxadiazol-5-yl)piperidin-1-yl)pyrimidin-4-ylamino)-N-methylbenzamide metabolite by LC/MS/MS analysis. It is filed as ADME, organism-based, Canis lupus familiaris. The settings on record: in vivo.
The species entered for data set [9] is Rattus norvegicus. As to the kind of experiment: Drug metabolism in rat assessed as 3-fluoro-4-(5-fluoro-6-(4-(3-(2-fluoropropan-2-yl)-l, 2,4-oxadiazol-5-yl)piperidin-l -yl)pyrimidin-4-ylamino)benzoic acid metabolite by LC/MS/MS analysis. Particulars: in vivo. The format is ADME, organism-based.
The species entered for data set [10] is Rattus norvegicus. As to the kind of experiment: Drug metabolism in rat assessed as 3-fluoro-4-(5-fluoro-6-(4-(3-(2-fluoropropan-2-yl)-1,2,4-oxadiazol-5-yl)piperidin-1-yl)pyrimidin-4-ylamino)benzamide metabolite by LC/MS/MS analysis. The format is ADME, organism-based. The settings on record: in vivo.
The species entered for data set [11] is Rattus norvegicus. The data set can be described thus: Drug metabolism in rat assessed as 3-fluoro-4-(5-fluoro-6-(4-(3-(2-fluoropropan-2-yl)-1,2,4-oxadiazol-5-yl)piperidin-1-yl)pyrimidin-4-ylamino)-N-methylbenzamide metabolite by LC/MS/MS analysis. Particulars: in vivo. It is filed as ADME, organism-based.
The species entered for data set [12] is Mus musculus. The data set can be described thus: Drug metabolism in mouse assessed as 3-fluoro-4-(5-fluoro-6-(4-(3-(2-fluoropropan-2-yl)-l, 2,4-oxadiazol-5-yl)piperidin-l -yl)pyrimidin-4-ylamino)benzoic acid metabolite by LC/MS/MS analysis. It is filed as ADME, organism-based. Particulars: in vivo.
The species entered for data set [13] is Mus musculus. As to the kind of experiment: Drug metabolism in mouse assessed as 3-fluoro-4-(5-fluoro-6-(4-(3-(2-fluoropropan-2-yl)-1,2,4-oxadiazol-5-yl)piperidin-1-yl)pyrimidin-4-ylamino)benzamide metabolite by LC/MS/MS analysis. It is filed as ADME, organism-based. Particulars: in vivo.
For data set [14], the species on record is Mus musculus. As to the kind of experiment: Drug metabolism in mouse assessed as 3-fluoro-4-(5-fluoro-6-(4-(3-(2-fluoropropan-2-yl)-1,2,4-oxadiazol-5-yl)piperidin-1-yl)pyrimidin-4-ylamino)-N-methylbenzamide metabolite by LC/MS/MS analysis. It is filed as ADME, organism-based. Particulars: in vivo.

Each structure is given as a SMILES string.

Consider `CC(C)(F)c1noc(C2CCN(c3ncnc(Nc4ccc(C(=O)O)cc4F)c3F)CC2)n1`, for which the concentration for a half-maximal effect (EC50) in [1] was determined as 100000 nM.

For the compound `CCc1cnc(N2CCC(C3Cc4cc(C5CCN(S(C)(=O)=O)CC5)ncc4O3)CC2)nc1` (stereo not given), the EC50 in data set [2] was found to be 2 nM.

As to `CCc1cnc(N2CCC(C3Cc4cc(-c5ccc(C(=O)N6CC(F)(F)C6)cc5)ccc4O3)CC2)nc1` (stereo not given), the EC50 in data set [2] turned out to be 228 nM.

Turning to `CN(C)C(=O)c1ccc(Nc2ncnc(N3CCC(c4nc(C(C)(C)F)no4)CC3)c2F)c(F)c1`, the Drug metabolism result in [3], in data set [4], in [5], in data set [6], in [7] and in [8] was “Active” in each case. In addition, the Drug metabolism entry in data set [9], in data set [10], in data set [11], in [12], in data set [13] and in data set [14] was “Active” each time.
